Results on one compound are retold here after ChEMBL document CHEMBL4145551, “Mitochondria-targeting indolizino[3,2-c]quinolines as novel class of photosensitizers for photodynamic anticancer activity” (Eur J Med Chem, 2018).

Data set [1] concerns DNA. In words: Induction of Escherichia coli pBR322 DNA cleavage at 20 uM irradiated with blue LED light after 30 mins in presence of hydroxyl radical scavenger mannitol by agarose gel electrophoresis method. The class given is nucleic-acid assay.
In data set [2] the test system is HeLa. Kind of data set: Photocytotoxicity against human HeLa cells assessed as cell shrinkage at 10 uM preincubated for 1 hr followed by blue LED light irradiation for 5 mins and measured after 13 hrs by propidium iodide staining based fluorescence microscopic method. The data set is classed as functional.
In data set [3] the test system is HeLa. Kind of data set: Photocytotoxicity against human HeLa cells assessed as cell shrinkage at 5 uM preincubated for 1 hr followed by blue LED light irradiation for 10 to 30 mins and measured after 2.5 hrs by holotomographic method. The class given is functional, cell-based.
The nature of data set [4]: Drug uptake in human HeLa cell mitochondria at 10 uM after 1 hr by mitotracker red staining based confocal laser scanning microscopic method. The class given is ADME.
Data set [5] concerns HeLa. In words: Photocytotoxicity against human HeLa cells assessed as DNA fragmentation up to 10 uM preincubated for 1 hr followed by blue LED light irradiation for 5 mins and measured after 13 hrs by Hoechst 33258 staining based fluorescence microscopic method. The class given is functional, cell-based.
The nature of data set [6]: Drug uptake in human HeLa cell cytoplasm at 10 uM after 1 hr by mitotracker red staining based confocal laser scanning microscopic method. The class given is ADME, subcellular.
For a further data set, the system named is Calf thymus DNA. Kind of data set: Binding affinity to calf thymus DNA assessed as red shift in absorption maxima. Particulars: Bos taurus. The class given is nucleic-acid assay.
In data set [7] the test system is DNA. In words: Induction of Escherichia coli pBR322 DNA cleavage at 20 uM after 30 mins under dark condition by agarose gel electrophoresis method. Particulars: 0.5 h. The class given is nucleic-acid assay.
Data set [8] relates to DNA. In words: Induction of Escherichia coli pBR322 DNA cleavage irradiated with blue LED light after 30 mins by agarose gel electrophoresis method. The data set is classed as nucleic-acid assay.
A further data set relates to MCF7. In words: Photocytotoxicity against human MCF7 cells assessed as cytoplasmic shrinkage at 10 uM preincubated for 1 hr followed by 488 nanometer laser light irradiation and measured after 8 to 10 mins by confocal microscopic method. The data set is classed as functional, cell-based.
The test system of data set [9] is HeLa. Kind of data set: Photocytotoxicity against human HeLa cells assessed as cell shrinkage at 20 uM preincubated for 1 hr followed by blue LED light irradiation for 10 mins and measured after 2.5 hrs by holotomographic method. The class given is functional, cell-based.
Data set [10] deals with HeLa. Kind of data set: Photocytotoxicity against human HeLa cells assessed as cellular shrinkage up to 10 uM preincubated for 1 hr followed by blue LED light irradiation for 5 mins and measured after 13 hrs by Hoechst 33258 staining based fluorescence microscopic method. The class given is functional, cell-based.
Data set [11] has as its system HeLa. Kind of data set: Photocytotoxicity against human HeLa cells assessed as reduction in cell viability preincubated for 1 hr followed blue LED light irradiation for 5 mins and measured after 24 hrs by MTT assay. The data set is classed as functional, cell-based.
Data set [12] has as its system DNA. In words: Binding affinity to Escherichia coli pBR322 DNA assessed as increase in test compound fluorescence up to 10 uM after 30 mins under blue LED light irradiation relative to control. The class given is nucleic-acid assay.
Data set [13] can be described thus: Drug uptake in mouse NIH/3T3 cell mitochondria at 10 uM incubated for 1 to 2 hrs under 488 nanometer laser light irradiation by confocal microscopic method. Particulars: nih3t3, 10 µM. The class given is ADME.
Data set [14] relates to HeLa. Kind of data set: Photocytotoxicity against human HeLa cells assessed as chromatin condensation up to 10 uM preincubated for 1 hr followed by blue LED light irradiation for 5 mins and measured after 13 hrs by Hoechst 33258 staining based fluorescence microscopic method. The class given is functional, cell-based.
The test system of data set [15] is HeLa. Kind of data set: Photocytotoxicity against human HeLa cells assessed as cytoplasmic shrinkage at 10 uM preincubated for 1 hr followed by 488 nanometer laser light irradiation and measured after 8 to 10 mins by confocal microscopic method. The class given is functional, cell-based.

Molecules are shown by their SMILES. pIC50: −log10 of the molar value. Activity calls are given as the source filed them. The calls are words filed in the database; no cut-off is given here.

In the case of `Cc1cccn2c1cc1c3ccccc3nc(-c3ccco3)c12`, the result with DNA [1], with HeLa [2], in the data set on HeLa [3], with HeLa [5], with MCF7 and in the data set with HeLa [9] was Active. The result in the data set on HeLa [10], in the data set with HeLa [14] and with HeLa [15] was Active. The Drug uptake entry in [4], in [6] and in data set [13] was “Active” each time. The Activity with Calf thymus DNA is 57 nm; with DNA [7] it was “Non-Toxic”; in the data set with DNA [8] it was “Dose-dependent effect”; in the data set with HeLa [11] it was “Dose-dependent effect”. Also, the pIC50 in the data set with HeLa [11] (light or radiation study) was 5.75. In the data set with DNA [12], the fold change (FC) is less than 4.
